In ChEMBL document CHEMBL5032507, “Selective Pseudo-irreversible Butyrylcholinesterase Inhibitors Transferring Antioxidant Moieties to the Enzyme Show Pronounced Neuroprotective Efficacy In Vitro and In Vivo in an Alzheimer's Disease Mouse Model” (J Med Chem, 2021):
The source made the active and inactive calls. The calls are words filed in the database; no cut-off is given here.

Assays:
[1] = Metal chelating activity assessed as Fe2+ -ferrozoine complex formation at ratio of 10:1 incubated for 2 mins followed by ferrozine addition and further incubated for 10 mins by absorbance based assay; conditions: time 12.0 min
[2] = Metal chelating activity assessed as compound-Cu2+ complex formation at ratio of 10:1 incubated for 2 mins followed by pyrocatechol violet addition and further incubated for 10 mins in dark by absorbance based assay; conditions: time 12.0 min
N9 [3] = assay: Immunomodulatory activity in mouse N9 microglial cells assessed as reduction in LPS-induced nitrite accumulation at 2.5 to 5 uM incubated for 24 hrs by Griess reagent based colorimetry assay; assay type: functional, cell-based; conditions: dose 2.5-5 µM
HT-22 [4] = assay: Neuroprotective activity against glutamate induced-oxidative stress in mouse HT-22 cells assessed as cell viability at 1 to 25 uM incubated for 24 hrs by MTT assay; assay type: functional, cell-based; conditions: dose 1-25 µM
[5] = Neurotoxicity in mouse HT-22 cells assessed as reduction in cell viability at 25 uM incubated for 24 hrs by MTT assay; assay type: cell-based; conditions: ht-22, 24 h
N9 [6] = assay: Immunomodulatory activity in mouse N9 microglial cells assessed as reduction in LPS-induced iNOS expression at 2.5 to 5 uM incubated for 24 hrs by Western blot analysis; assay type: functional, cell-based; conditions: dose 2.5-5 µM
N9 [7] = assay: Immunomodulatory activity in mouse N9 microglial cells assessed as reduction in LPS-induced IL-1beta release at 2.5 to 5 uM incubated for 24 hrs by Western blot analysis; assay type: functional, cell-based; conditions: dose 2.5-5 µM
HT-22 [8] = assay: Neuroprotective activity against glutamate induced-oxidative stress in mouse HT-22 cells assessed as cell viability at 5 uM incubated for 24 hrs by MTT assay; assay type: functional, cell-based
Mus musculus [9] = assay: Anti-alzheimer activity against amyloid beta 25-35 induced learning impairments in wild type 129 SV mouse assessed as increase in spontaneous alternation performance by measuring total number of arm entries at 0.3 mg/kg, ip administered once daily for 7 days and measured on day 8 by Y-maze test; assay type: functional, organism-based; conditions: time 7.0 day
Mus musculus [10] = assay: Anti-alzheimer activity against amyloid beta 25-35 induced learning impairments in Swiss mouse assessed as increase in spontaneous alteration performance by measuring total number of arm entries at 0.3 to 1 mg/kg, ip administered once daily for 7 days and measured on day 8 by Y-maze test; assay type: functional, organism-based; conditions: dose 0.3-1 mg/kg, time 7.0 day
[11] = Toxicity in Swiss mouse assessed as change in weight gain at 0.1 to 3 mg/kg, ip administered for 7 days; assay type: organism-based; conditions: in vivo, 168 h, dose 0.1-3 mg/kg, time 7 day
Mus musculus [12] = assay: Anti-alzheimer activity against amyloid beta 25-35 induced learning impairments in Swiss mouse assessed as latency to enter dark compartment at 0.1 mg/kg, ip administered once daily for 7 days and measured on day 8 by passive avoidance test; assay type: functional, organism-based; conditions: time 7.0 day
N9 [13] = assay: Immunomodulatory activity in mouse N9 microglial cells assessed as reduction in LPS-induced IL-1beta release at 0.5 to 5 uM incubated for 24 hrs by Western blot analysis; assay type: functional, cell-based; conditions: dose 0.5-5 µM
Cholinesterase [14] = molecular target: T1, Cholinesterase (Homo sapiens, UniProt P06276)
Description: Binding affinity to human serum BChE assessed as half life

Mus musculus [15] = assay: Anti-alzheimer activity against amyloid beta 25-35 induced learning impairments in wild type 129 SV mouse assessed as increase in latency to enter dark compartment at 0.3 mg/kg, ip administered once daily for 7 days and measured on day 9 by passive avoidance test; assay type: functional, organism-based; conditions: time 7.0 day
N9 [16] = assay: Immunomodulatory activity in mouse N9 microglial cells assessed as reduction in LPS-induced nitrite accumulation at 0.1 to 5 uM incubated for 24 hrs by Griess reagent based colorimetry assay; assay type: functional, cell-based; conditions: dose 0.1-5 µM
Mus musculus [17] = assay: Anti-alzheimer activity against amyloid beta 25-35 induced learning impairments in BChE KO mouse assessed as increase in latency to enter dark compartment at 0.3 mg/kg, ip administered once daily for 7 days and measured on day 9 by passive avoidance test; assay type: functional, organism-based; conditions: time 7.0 day
Cholinesterase [18] = molecular target: T1, Cholinesterase; assay: Inhibition of human BChE using butyrylthiocholine iodide as substrate incubated for 20 mins followed by substrate addition by Ellman's method
N9 [19] = assay: Immunomodulatory activity in mouse N9 microglial cells assessed as reduction in LPS-induced iNOS expression at 0.1 to 5 uM incubated for 24 hrs by Western blot analysis; assay type: functional, cell-based; conditions: dose 0.1-5 µM
[20] = Toxicity in Swiss mouse assessed as change in normal behaviour at 0.1 to 3 mg/kg, ip administered for 7 days; assay type: organism-based; conditions: in vivo, 168 h, dose 0.1-3 mg/kg, time 7 day
N9 [21] = assay: Immunomodulatory activity in mouse N9 microglial cells assessed as increase in LPS-induced TREM2 expression at 2.5 to 5 uM incubated for 24 hrs by Western blot analysis; assay type: functional, cell-based; conditions: dose 2.5-5 µM
Mus musculus [22] = assay: Anti-alzheimer activity against amyloid beta 25-35 induced learning impairments in BChE KO mouse assessed as memory deficit in alternation performance by measuring total number of arm entries at 0.3 mg/kg, ip qd administered for 7 days and measured on day 8 by Y-maze test; assay type: functional, organism-based; conditions: time 7.0 day
[23] = molecular target: Acetylcholinesterase (Homo sapiens) (UniProt P22303); assay: Inhibition of human AChE using acetylthiocholine iodide as substrate at 10 uM incubated for 20 mins followed by substrate addition by Ellman's method relative to control
Mus musculus [24] = assay: Anti-alzheimer activity against amyloid beta 25-35 induced learning impairments in Swiss mouse assessed as increase in spontaneous alteration performance by measuring total number of arm entries at 1 mg/kg, ip administered once daily for 7 days and measured on day 8 by Y-maze test; assay type: functional, organism-based; conditions: time 7.0 day
N9 [25] = assay: Immunomodulatory activity in mouse N9 microglial cells assessed as reduction in LPS-induced IL-1beta release at 0.1 to 5 uM incubated for 24 hrs by Western blot analysis; assay type: functional, cell-based; conditions: dose 0.1-5 µM
Mus musculus [26] = assay: Anti-alzheimer activity against amyloid beta 25-35 induced learning impairments in Swiss mouse assessed as latency to enter dark compartment at 0.3 mg/kg, ip administered once daily for 7 days and measured on day 8 by passive avoidance test; assay type: functional, organism-based; conditions: time 7.0 day
HT-22 [27] = assay: Neuroprotective activity against glutamate induced-oxidative stress in mouse HT-22 cells assessed as cell viability at 10 uM incubated for 24 hrs by MTT assay; assay type: functional, cell-based

T1 sequence (P06276 whole entry): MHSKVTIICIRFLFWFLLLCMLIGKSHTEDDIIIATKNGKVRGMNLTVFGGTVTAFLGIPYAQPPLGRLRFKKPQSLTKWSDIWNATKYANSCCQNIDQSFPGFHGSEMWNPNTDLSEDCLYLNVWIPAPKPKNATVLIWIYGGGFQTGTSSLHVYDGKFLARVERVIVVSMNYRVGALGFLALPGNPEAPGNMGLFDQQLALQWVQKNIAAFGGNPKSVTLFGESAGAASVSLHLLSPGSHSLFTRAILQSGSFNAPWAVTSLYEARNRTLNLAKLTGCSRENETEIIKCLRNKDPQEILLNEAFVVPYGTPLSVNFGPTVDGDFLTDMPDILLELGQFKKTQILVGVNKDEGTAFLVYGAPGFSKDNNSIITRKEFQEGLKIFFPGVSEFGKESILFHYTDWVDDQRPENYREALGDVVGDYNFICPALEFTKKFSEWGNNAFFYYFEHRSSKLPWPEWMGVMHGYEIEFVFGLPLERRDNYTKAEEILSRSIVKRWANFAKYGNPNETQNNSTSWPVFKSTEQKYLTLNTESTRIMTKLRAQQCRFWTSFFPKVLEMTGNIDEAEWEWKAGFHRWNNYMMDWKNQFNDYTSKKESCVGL
Acetylcholinesterase (Homo sapiens), sequence (P22303 whole entry): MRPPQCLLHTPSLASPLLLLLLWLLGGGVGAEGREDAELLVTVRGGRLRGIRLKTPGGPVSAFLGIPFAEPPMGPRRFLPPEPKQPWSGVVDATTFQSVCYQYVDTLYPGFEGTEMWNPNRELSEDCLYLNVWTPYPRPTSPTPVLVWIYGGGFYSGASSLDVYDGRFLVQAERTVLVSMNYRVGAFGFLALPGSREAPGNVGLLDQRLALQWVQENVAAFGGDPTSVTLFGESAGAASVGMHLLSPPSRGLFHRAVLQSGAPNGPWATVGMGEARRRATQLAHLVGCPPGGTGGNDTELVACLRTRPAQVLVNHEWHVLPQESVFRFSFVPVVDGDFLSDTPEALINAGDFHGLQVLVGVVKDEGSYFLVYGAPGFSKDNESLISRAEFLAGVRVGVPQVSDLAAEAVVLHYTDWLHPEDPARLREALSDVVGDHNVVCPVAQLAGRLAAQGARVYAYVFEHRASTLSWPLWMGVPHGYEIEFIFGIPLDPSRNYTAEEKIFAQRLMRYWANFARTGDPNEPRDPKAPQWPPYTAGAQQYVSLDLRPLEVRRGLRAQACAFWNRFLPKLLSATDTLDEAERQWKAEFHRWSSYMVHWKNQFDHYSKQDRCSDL

COc1cc(/C=C/C(=O)O)ccc1O [FERULATE]
Activity [1]: inactive
Activity [2]: inactive
Activity (N9 [3]): inactive
Activity (HT-22 [4]): inactive
Activity [5]: Non-Toxic
Activity (N9 [6]): inactive
Activity (N9 [7]): inactive

COc1ccc2[nH]cc(CCNC(=O)CCCCCCNC(=O)Oc3ccc4c(c3)CN3CCc5ccccc5C3N4C)c2c1 (stereo not given)
Activity (HT-22 [8]): Active
Activity (Mus musculus [9]): Active
Activity (Mus musculus [10]): Active
Activity [1]: inactive
Activity [11]: Non-Toxic
Activity [2]: inactive
Activity (Mus musculus [12]): Active
Activity (N9 [13]): Active
T1/2 (Cholinesterase [14]): 3 h
Activity (Mus musculus [15]): Active
Activity (N9 [16]): Active
Activity [5]: Non-Toxic
Activity (Mus musculus [17]): inactive
IC50 (Cholinesterase [18]; read-out: IC50): 102 nM
IC50 (Cholinesterase [18]; read-out: pIC50 (converted)): 204 nM
Activity (N9 [19]): Active
Activity [20]: Non-Toxic
Activity (N9 [21]): Active
Activity (Mus musculus [22]): inactive
inhibition [23]: 6.5%

CN1c2ccc(OC(=O)NCCCCNC(=O)/C=C/c3ccccc3)cc2CN2CCc3ccccc3C21 (stereo not given)
IC50 (Cholinesterase [18]; read-out: IC50): 221 nM
inhibition [23]: 6.1%

COc1ccc2[nH]cc(CCNC(=O)CCCCNC(=O)Oc3ccc4c(c3)CN3CCc5ccccc5C3N4C)c2c1 (stereo not given)
IC50 (Cholinesterase [18]; read-out: IC50): 127 nM
inhibition [23]: 15%

Cc1c(C)c2c(c(C)c1O)CCC(C)(C(=O)NCCCCCCNC(=O)Oc1ccc3c(c1)CN1CCc4ccccc4C1N3C)O2 (stereo not given)
IC50 (Cholinesterase [18]; read-out: IC50): 255 nM
IC50 (Cholinesterase [18]; read-out: pIC50 (converted)): 9330 nM
inhibition [23]: 24.1%

COc1ccc2[nH]cc(CCNC(=O)CCNC(=O)Oc3ccc4c(c3)CN3CCc5ccccc5C3N4C)c2c1 (stereo not given)
IC50 (Cholinesterase [18]; read-out: IC50): 482 nM
inhibition [23]: 2.3%

COc1cc(/C=C/C(=O)NCCCCNC(=O)Oc2ccc3c(c2)CN2CCc4ccccc4C2N3C)ccc1O (stereo not given)
Activity [1]: inactive
Activity [11]: Non-Toxic
Activity [2]: inactive
Activity (Mus musculus [24]): Active
Activity (N9 [25]): Active
Activity (Mus musculus [26]): Active
Activity (HT-22 [27]): Active
T1/2 (Cholinesterase [14]): 2.4 h
Activity (N9 [16]): Active
Activity [5]: Non-Toxic
IC50 (Cholinesterase [18]; read-out: IC50): 155 nM
IC50 (Cholinesterase [18]; read-out: pIC50 (converted)): 115 nM
Activity (N9 [19]): Active
Activity [20]: Non-Toxic
Activity (N9 [21]): Active
inhibition [23]: 7.7%

Cc1c(C)c2c(c(C)c1O)CCC(C)(C(=O)NCCCCNC(=O)Oc1ccc3c(c1)CN1CCc4ccccc4C1N3C)O2 (stereo not given)
IC50 (Cholinesterase [18]; read-out: IC50): 791 nM
inhibition [23]: 15.2%

COc1cc(/C=C/C(=O)NCCCCCCNC(=O)Oc2ccc3c(c2)CN2CCc4ccccc4C2N3C)ccc1O (stereo not given)
IC50 (Cholinesterase [18]; read-out: IC50): 166 nM
inhibition [23]: 20%

COc1ccc2[nH]cc(CCNC(C)=O)c2c1 [MELATONIN]
Activity [1]: inactive
Activity [2]: inactive
Activity (N9 [3]): inactive
Activity (HT-22 [4]): inactive
Activity [5]: Non-Toxic
Activity (N9 [6]): inactive
Activity (N9 [7]): inactive

CN1c2ccc(OC(=O)NCCCCCCNC(=O)/C=C/c3ccccc3)cc2CN2CCc3ccccc3C21 (stereo not given)
IC50 (Cholinesterase [18]; read-out: IC50): 442 nM
inhibition [23]: 37.5%
